# Experimental data reported in article PMC12452389, “Arginine-Derived Cationic Surfactants Containing Phenylalanine and Tryptophan: Evaluation of Antifungal Activity, Biofilm Eradication, Cytotoxicity, and Ecotoxicity” (Journal of Xenobiotics, 2025).
# Where two headings read alike, the source gives them in different places.
# Legend:
# [1] = cmc by conductivity; format: physicochemical; settings: conductivity measurements; BAC mixture C12 (70%) and C14 (30%)
# [2] = test system: Candida albicans ATCC 90028; assay: MIC broth microdilution; format: cell-based; settings: C. albicans
# Protocol: (§1) The antimicrobial activity of these compounds was assessed against selected yeast and bacterial strains: Candida albicans ATCC 90028 (CA9), Candida rugosa ATCC 10571 (CR), Candida glabrata ATCC 66032 (CG), Candida parapsilosis ATCC 22019 (CP), Candida tropicalis ATCC 7349 (CT), Candida auris ATCC 21092 (CA), and Cyberlindnera jadinii ATCC 60459. Frozen yeast stocks were plated on Sabouraud agar (SBA) and incubated at 30 °C for 24 h. Three to four colonies from each strain were then suspended in RPMI 1640 (Roswell Park Memorial Institute medium, Sigma- Aldrich, Merck, Darmstadt, Germany) to prepare bacterial dispersions of ~1.5 × 10^6 CFU/mL.
# (§2) A broth microdilution assay was used to calculate MIC values. Twofold serially diluted compounds in RPMI 1640 medium (from 256 to 2 μg/mL), were dispensed (100 μL per well) into a 96-well plate. Then, 100 μL of a yeast starter culture was added to each well to reach a final inoculum of 7.5 × 10^5 CFU/mL. Wells containing only nutrient broth without the tested surfactant served as growth controls. Microbial growth was assessed by turbidity, which reflects increases in biomass and cell count. […] To confirm the obtained MICs, 20 μL of 0.015% (w/v) resazurin was dispensed to each well and incubated for 3 h at 30 °C. Metabolic activity was evidenced by a color change from blue to pink, thereby confirming the MIC value.
# [3] = test system: Candida auris ATCC 21092; assay: MIC broth microdilution; format: cell-based; settings: C. auris
# Protocol: as §1, §2
# [4] = test system: Candida glabrata ATCC 66032; assay: MIC broth microdilution; format: cell-based; settings: C. glabrata
# Protocol: as §1, §2
# [5] = test system: Candida parapsilosis ATCC 22019; assay: MIC broth microdilution; format: cell-based; settings: C. parapsilosis
# Protocol: as §1, §2
# [6] = test system: Candida rugosa ATCC 10571; assay: MIC broth microdilution; format: cell-based; settings: C. rugosa
# Protocol: as §1, §2
# [7] = test system: Candida tropicalis ATCC 7349; assay: MIC broth microdilution; format: cell-based; settings: C. tropicalis
# Protocol: as §1, §2
# [8] = test system: Cyberlindnera jadinii ATCC 60459 (C. jardinii); assay: MIC broth microdilution; format: cell-based; settings: C. jardinii
# Protocol: as §1, §2
# [9] = test system: erythrocytes; assay: Hemolytic activity assay; format: cell-based; settings: rabbit erythrocytes
# Protocol: Fresh rabbit blood was obtained from the Animal Facility of the CID-CSIC (Research and Development Center, Spanish National Research Council, Barcelona, Spain). Sample collection was conducted in strict compliance with the bioethical guidelines established under Spanish legislation. Erythrocytes were isolated by centrifugation (3000 rpm/10 min). The supernatant was discarded, and the erythrocytes were washed three times with PBS (phosphate-buffered saline, pH 7.4) and then resuspended in PBS at a concentration of 8 × 10^9 cells/mL. Subsequently, varying volumes of a concentrated surfactant solution were added to Eppendorf tubes containing 25 μL of erythrocyte suspension. PBS was then added to bring the total volume to 1 mL. The samples were gently shaken for 10 min at room temperature and centrifuged at 10,000 rpm for 5 min. Hemolysis was evaluated by measuring the absorbance of the supernatant at 540 nm and comparing it to that of a 100% hemolysis control (erythrocytes treated with distilled water). The HC50, defined as the surfactant concentration that induces 50% hemolysis, was determined from the concentration–response curves: % hemolysis= Abstest compound/AbsBasal haemolytic activity ×100
# [10] = test system: Daphnia magna; assay: Acute toxicity, immobilization test; format: in vivo; settings: Daphnia magna immobilization, 48 h of exposure; 95% confidence intervals in parentheses
# Protocol: Aquatic toxicity evaluation was performed using Daphnia magna following established protocols. This bioassay method employs laboratory-cultured freshwater microcrustaceans to evaluate surfactant toxicity in aquatic environments. Test organisms were utilized during their initial 24 h life stage to ensure consistency. The endpoint measurement focused on mobility impairment, specifically the loss of swimming capability after gentle stimulation lasting 15 s. Testing conditions included controlled water chemistry parameters: pH maintained at 8.0, calcium-to-magnesium ratio of 4:1, and total hardness of 250 mg/L as CaCO3. All experiments were conducted under dark conditions at 20 °C. The experimental design incorporated ten test concentrations for each surfactant compound, distributed in geometric progression. Each concentration level included 20 Daphnia specimens distributed across four replicate groups of five organisms each. Mobility assessment occurred at 48 h post-exposure, with immobilization percentages plotted against concentration using probability–logarithmic scaling.
# [11] = value in parentheses, read-out: MIC
substance,measurement,setting,value
"benzalkonium chloride [BAC, reference compound]",cmc,[1],5.2 mM
same,MIC,"[2]; RPMI 1640, 24 h, 30 °C",8 µg/mL
same,MIC,[2]; [11],24 µM
same,MIC,"[3]; RPMI 1640, 24 h, 30 °C",32 µg/mL
same,MIC,[3]; [11],98 µM
same,MIC,"[4]; RPMI 1640, 24 h, 30 °C",8 µg/mL
same,MIC,[4]; [11],24 µM
same,MIC,"[5]; RPMI 1640, 24 h, 30 °C",4 µg/mL
same,MIC,[5]; [11],12 µM
same,MIC,"[6]; RPMI 1640, 24 h, 30 °C",8 µg/mL
same,MIC,[6]; [11],24 µM
same,MIC,"[7]; RPMI 1640, 24 h, 30 °C",4 µg/mL
same,MIC,[7]; [11],12 µM
same,MIC,"[8]; RPMI 1640, 24 h, 30 °C",16 µg/mL
same,MIC,[8]; [11],48 µM
same,HC50,"[9]; 10 min, room temperature",31 ± 0.3 µg/mL
same,HC50,[9]; value in parentheses,92 ± 0.8 µM
same,EC50,[10],0.039 (0.023–0.05) μg/mL
